Data reported in publication PMC10064330, “Reversible Dual-Covalent Molecular Locking of the 14-3-3/ERRγ Protein–Protein Interaction as a Molecular Glue Drug Discovery Approach” (Journal of the American Chemical Society, 2023).

Target: T1, 14-3-3γ/ERRγ complex (Homo sapiens, UniProt P61981+P62508)
T1 construct: made in house; host or cells: E. coli NiCo21 (DE3)
Assay: Peptide washout experiment on immobilized 14-3-3γ/ERRγ complex
Assay type: binding
Conditions: 100 μM compound; for total recovered ERRγ peptide: 5 washing steps of 20 min, normalized to recovery without 14-3-3γ; for initial peptide recovery: first washing step (DMSO 63%)
Experimental: Next, a washout experiment was performed to understand ternary 14-3-3/ERRγ/molecular lock complex dissociation. Fluorescein-labeled ERRγ was incubated overnight with biotin-functionalized 14-3-3γ in the presence of either DMSO, disulfide 1, aldehyde 3, or molecular lock 5 and subsequently immobilized on streptavidin-functionalized magnetic beads (Figure S17a). The beads were then washed five times in a peptide and compound-free buffer. During each wash step, the beads were incubated in the buffer for 20 min to allow dissociation of the ERRγ peptide from the immobilized 14-3-3γ. The fluorescence was then measured for all samples before capture, after capture, and after each washing step (Figure S17b), and the amount of peptide recovery was calculated. […] The analysis of individual washing steps provided further insight into the ternary complex dissociation kinetics (Figure 3e).
Figure S17. Washout experiment. (a) Schematic representation of washout experiment. Biotinylated 14-3-3γ (5 µM), fluorescein-labelled ERRγ 9-mer peptide (200 nM) and dual-reactive molecular lock 5 were preincubated overnight to form a ternary ‘crosslinked’ complex. This complex was immobilized on streptavidin-functionalized magnetic beads. Complex-functionalized beads were subsequently washed […] with 50 µL buffer. For each wash step, the complex was incubated 20 minutes in the buffer before removal to allow dissociation of the ERRγ peptide from the ternary complex. From samples before and after capturing, and from all wash fractions, we have measured the fluorescence to determine the amount of ERR γ peptide in each fraction. (b) Fluorescence signal of fluorescein-labelled ERRγ peptide after washout experiment. Samples are present for FAM - ERRγ incubated with and without biotinylated 14 -3-3γ and in presence of either DMSO (negative control), disulfide compound 1, aldehyde compound 3 or dual-reactive compound 5. Fluorescence was measured from samples before and after capturing and from all wash fractions. (c) % recovery of FAM -ERRγ in each wash fraction of washout experiment. Percentage is obtained by dividing the fluorescence of each sample (see panel a) by the fluorescence signal obtained before capturing (input sample = 100% , see panel a). […]
steps in presence of DMSO, or 100 µM compound 1, 3 or 5. Values are calculated by dividing the fluorescence signal (from panel a) of samples with 14-3-3 with the fluorescence signal of samples without 14-3-3, to correct for non-specific binding of peptide to the magnetic beads. […]
temperatures are based on three independent experiments from which the average and standard deviations were determined using excel. […]

T1 sequence (P61981 whole entry, other chains not shown): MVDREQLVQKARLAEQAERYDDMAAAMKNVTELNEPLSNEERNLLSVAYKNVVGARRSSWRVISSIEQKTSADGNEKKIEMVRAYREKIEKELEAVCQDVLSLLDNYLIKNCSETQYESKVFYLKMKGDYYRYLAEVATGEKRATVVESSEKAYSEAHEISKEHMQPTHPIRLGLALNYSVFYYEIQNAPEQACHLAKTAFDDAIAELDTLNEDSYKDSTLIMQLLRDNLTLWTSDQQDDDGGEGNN

CN(C)CCSSCCN(C)C(=O)c1cccc(F)c1 [compound 1, reference compound]
total recovered ERRγ peptide: 58%
initial peptide recovery: 42%

CN(C)CCSSCCN(C)C(=O)c1ccc(C=O)c(F)c1 [compound 5]
total recovered ERRγ peptide: 44%
initial peptide recovery: 36%
